Earlier results as cited in patent publication US20250009900A1, “OXAZAPHOSPHORINE ANTIBODY DRUG CONJUGATES AND METHODS OF USE” (LA Life Products, LLC, priority 2023, published 2025).

Conditions: combination with ipilimumab (anti-CTLA-4), in the clinic; cited from earlier work

## Cn1c(COP(=O)(NCCBr)NCCBr)cnc1[N+](=O)[O-] [evofosfamide]
  good clinical activity (patients): 15 of 22
